From patent publication US20250340574A1, “MODULATORS OF CYSTIC FIBROSIS TRANSMEMBRANE CONDUCTANCE REGULATOR” (Vertex Pharmaceuticals Incorporated, priority 2022, published 2025)
Like-named read-outs stand apart in the source and are kept apart here.

Tests used:
[1] = amide bond, 13-membered ring, CDMT/NMM, DMF
[2] = target: T1, CFTR (F508del/MF-HBE cells) (Homo sapiens, UniProt P13569, DEL508-508); assay: Ussing chamber assay of CFTR-mediated short-circuit currents, Assay C (0.026 μM to 25 μM, 6 concentrations); assay type: cell-based; conditions: with 33 nM potentiator and 18 μM Tezacaftor, 20% human serum; for Emax: read-out: C Max activity (%)
T1 construct: human bronchial epithelial (HBE) cells derived from CF subjects heterozygous for F508del and a minimal function CFTR mutation (F508del/MF-HBE); endogenous in cells; host or cells: Primary human bronchial epithelial cells from CF subjects (F508del/MF genotype), differentiated at an air-liquid interface
How it was run: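 F508del/MF-HBE cells were preincubated 18–24 h at 37 °C in 20% human serum with corrector plus 18 μM tezacaftor and either 33 nM (concentration series) or 44 nM (1 μM single point) of the aminotrifluoromethyl triazatricyclic potentiator. Ussing chamber, Vhold=0 mV, 37 °C; forskolin 20 μM stimulation, CFTR ISC taken as inhibitor-cocktail-sensitive current.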

T1 sequence (P13569 with tags, fused parts or gaps DEL508-508): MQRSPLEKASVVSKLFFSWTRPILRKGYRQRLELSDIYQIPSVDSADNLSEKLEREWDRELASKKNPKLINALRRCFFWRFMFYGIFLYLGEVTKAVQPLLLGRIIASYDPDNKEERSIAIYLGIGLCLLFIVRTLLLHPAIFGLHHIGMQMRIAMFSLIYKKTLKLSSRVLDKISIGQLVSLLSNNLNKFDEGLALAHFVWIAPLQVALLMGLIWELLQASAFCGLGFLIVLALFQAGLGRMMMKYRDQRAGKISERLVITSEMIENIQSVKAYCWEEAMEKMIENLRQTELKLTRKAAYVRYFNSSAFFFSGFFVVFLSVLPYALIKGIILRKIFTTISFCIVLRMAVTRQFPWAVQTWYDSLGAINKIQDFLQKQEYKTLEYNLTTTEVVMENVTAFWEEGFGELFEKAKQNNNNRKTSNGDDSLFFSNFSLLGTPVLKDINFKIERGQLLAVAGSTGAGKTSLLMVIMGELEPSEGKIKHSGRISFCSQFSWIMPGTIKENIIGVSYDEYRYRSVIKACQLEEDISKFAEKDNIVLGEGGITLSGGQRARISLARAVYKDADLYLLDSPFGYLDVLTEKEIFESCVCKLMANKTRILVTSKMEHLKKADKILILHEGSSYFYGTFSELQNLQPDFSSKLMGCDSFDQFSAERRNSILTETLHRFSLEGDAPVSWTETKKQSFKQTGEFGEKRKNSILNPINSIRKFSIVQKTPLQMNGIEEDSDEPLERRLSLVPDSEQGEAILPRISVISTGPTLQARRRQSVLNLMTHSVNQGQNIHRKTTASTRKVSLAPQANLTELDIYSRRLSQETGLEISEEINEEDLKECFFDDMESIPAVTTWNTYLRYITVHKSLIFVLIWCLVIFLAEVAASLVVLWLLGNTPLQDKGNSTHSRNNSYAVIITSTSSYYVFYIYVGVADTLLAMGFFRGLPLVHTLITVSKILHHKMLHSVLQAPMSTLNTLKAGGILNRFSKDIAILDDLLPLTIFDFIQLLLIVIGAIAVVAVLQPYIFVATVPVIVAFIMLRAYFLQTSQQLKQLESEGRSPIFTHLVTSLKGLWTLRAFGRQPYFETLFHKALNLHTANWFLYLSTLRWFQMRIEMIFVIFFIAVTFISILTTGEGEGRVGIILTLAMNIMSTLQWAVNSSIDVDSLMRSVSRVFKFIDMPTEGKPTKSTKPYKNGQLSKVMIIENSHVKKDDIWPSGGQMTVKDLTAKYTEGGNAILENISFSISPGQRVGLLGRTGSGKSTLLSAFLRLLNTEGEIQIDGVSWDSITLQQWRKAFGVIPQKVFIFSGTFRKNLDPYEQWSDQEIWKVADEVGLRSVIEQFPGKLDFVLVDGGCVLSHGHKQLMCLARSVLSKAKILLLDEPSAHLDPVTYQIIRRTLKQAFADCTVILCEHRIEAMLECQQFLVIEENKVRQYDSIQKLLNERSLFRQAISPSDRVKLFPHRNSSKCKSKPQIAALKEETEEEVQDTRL

“(5P,11R)-7-methyl-6-[2-methyl-6-(2-methylpropyl)phenyl]-12-({5-methyl-6-[1-(trifluoromethyl)cyclopropyl]-5H-pyrrolo[2,3-b]pyrazin-3-yl}methyl)-11-[(propan-2-yloxy)methyl]-9-oxa-2λ^6-thia-3,5,12,19-tetraazatricyclo[12.3.1.1∧{4,8}]nonadeca-1(18),4(19),5,7,14,16-hexaene-2,2,13-trione” gave a ring closure, yield after HPLC ([1]; 13.9 mM, 25.0 °C) of 65%.
`Cc1cccc(C)c1-c1cc2nc(n1)NS(=O)(=O)c1cccc(c1)C(=O)N(Cc1cnc3oc(C4CC4)cc3n1)C(CCC1(C)CC1)CO2` (single isomer, unassigned; isomer 1) gave a ring closure, yield after HPLC ([1]; from Cc1cccc(C)c1-c1cc(OCC(CCC2(C)CC2)NCc2cnc3oc(C4CC4)cc3n2)nc(NS(=O)(=O)c2cccc(C(=O)O)c2)n1, 12.8 mM, 24.5 h) of 48%.
`Cc1cccc(C)c1-c1cc2nc(n1)NS(=O)(=O)c1cccc(c1)C(=O)N(Cc1cnc3c(F)c(C4(C)CC4)n(C)c3n1)[C@H](CC1(C)CC1)CO2` [IV-93, (11R)-6-(2,6-dimethylphenyl)-12-[[7-fluoro-5-methyl-6-(1-methylcyclopropyl)pyrrolo[2,3-b]pyrazin-3-yl]methyl]-11-[(1-methylcyclopropyl)methyl]-2,2-dioxo-9-oxa-2λ^6-thia-3,5,12,19-tetraza-tricyclo[12.3.1.14,8]nonadeca-1(18),4(19),5,7,14,16-hexaen-13-one] showed a ring closure, yield after HPLC ([1]; from Cc1cccc(C)c1-c1cc(OC[C@@H](CC2(C)CC2)NCc2cnc3c(F)c(C4(C)CC4)n(C)c3n2)nc(NS(=O)(=O)c2cccc(C(=O)O)c2)n1, 10.1 mM, 25.0 °C, 16.5 h) of 20%, an EC50 [2] of under 1000 nM and an Emax [2] of over 60%.
Compound “(6P,11S)-12-({6-tert-butyl-5-methyl-5H-pyrrolo[2,3-b]pyrazin-3-yl}methyl)-7-methyl-6-[2-methyl-6-(2-methylpropyl)phenyl]-11-[(trifluoromethoxy)methyl]-9-oxa-2λ^6-thia-3,5,12,19-tetraazatricyclo[12.3.1.1∧{4,8}]nonadeca-1(17),4,6,8(19),14(18),15-hexaene-2,2,13-trione” has a ring closure, yield after HPLC ([1]; 8.87 mM, 25.0 °C) of 36%.
For `Cc1cccc(C)c1-c1cc2nc(n1)NS(=O)(=O)c1cccc(c1)C(=O)N(Cc1cnc3c(n1)C(=O)N(C(C)C)C3)[C@H](CC1(C)CC1)CO2` [III-21, (11R)-6-(2,6-Dimethylphenyl)-12-[(6-isopropyl-5-oxo-7H-pyrrolo[3,4-b]pyrazin-3-yl)methyl]-11-[(1-methylcyclopropyl)methyl]-2,2-dioxo-9-oxa-2λ^6-thia-3,5,12,19-tetrazatricyclo[12.3.1.14,8]nonadeca-1(18),4(19),5,7,14,16-hexaen-13-one], the ring closure, yield after HPLC ([1]; from Cc1cccc(C)c1-c1cc(OC[C@@H](CC2(C)CC2)NCc2cnc3c(n2)C(=O)N(C(C)C)C3)nc(NS(=O)(=O)c2cccc(C(=O)O)c2)n1, 9.0 mM, 16.5 h) was 31%, the Emax ([2]; 18-24 hours) was over 60% and the EC50 [2] was 1000 to 3000 nM.
Work on `Cc1cccc(C)c1-c1cc2nc(n1)NS(=N)(=O)c1cccc(c1)C(=O)N(Cc1cnc3oc(C4CC4)cc3n1)[C@H](CC(C)(C)C)CO2` (single isomer, unassigned; isomer a) yielded a ring closure, yield after HPLC ([1]; from 3-[[[4-[(2R)-2-[(6-Cyclopropylfuro[2,3-b]pyrazin-2-yl)methylamino]-4,4-dimethyl-pentoxy]-6-(2,6-dimethylphenyl)pyrimidin-2-yl]amino]sulfonimidoyl]benzoic acid (hydrochloride salt) (isomer A), 14.2 mM) of 23%.
For `Cc1cccc(C)c1-c1cc2nc(n1)NS(=O)(=O)c1cccc(c1)C(=O)N(Cc1cnc3oc(C4(C)CCC4)cc3n1)[C@H](CC1(C)CC1)CO2` [Compound I-143, (11R)-6-(2,6-Dimethylphenyl)-12-[[6-(1-methylcyclobutyl)furo[2,3-b]pyrazin-2-yl]methyl]-11-[(1-methylcyclopropyl)methyl]-2,2-dioxo-9-oxa-2λ^6-thia-3,5,12,19-tetrazatricyclo[12.3.1.14,8]nonadeca-1(18),4(19),5,7,14,16-hexaen-13-one], the ring closure, yield after HPLC ([1]; from Cc1cccc(C)c1-c1cc(OC[C@@H](CC2(C)CC2)NCc2cnc3oc(C4(C)CCC4)cc3n2)nc(NS(=O)(=O)c2cccc(C(=O)O)c2)n1, 44.8 mM, 16.0 h) was 56%, the Emax ([2]; 18-24 hours) was over 60% and the EC50 [2] was 3000 to 30000 nM.
Work on `CCc1cccc(CC)c1-c1cc2nc(n1)NS(=O)(=O)c1cccc(c1)C(=O)N(Cc1cnc3c(CCOC)c(C(C)(C)C)n(C)c3n1)[C@H](CC(C)C)CO2` [IV-92, (11R)-12-[[6-tert-butyl-7-(2-methoxyethyl)-5-methyl-pyrrolo[2,3-b]pyrazin-3-yl]methyl]-6-(2,6-diethylphenyl)-11-isobutyl-2,2-dioxo-9-oxa-2λ^6-thia-3,5,12,19-tetrazatricyclo[12.3.1.14,8]nonadeca-1(18),4(19),5,7,14,16-hexaen-13-one] yielded a ring closure, yield after HPLC ([1]; from CCc1cccc(CC)c1-c1cc(OC[C@@H](CC(C)C)NCc2cnc3c(CCOC)c(C(C)(C)C)n(C)c3n2)nc(NS(=O)(=O)c2cccc(C(=O)O)c2)n1, 34.0 mM, 25.0 °C, 2.0 h) of 22%, an EC50 [2] of under 1000 nM and an Emax [2] of over 60%.
With “(5P,11R)-11-({bicyclo[1.1.1]pentan-1-yl}methyl)-12-({6-tert-butyl-5-methyl-5H-pyrrolo[2,3-b]pyrazin-3-yl}methyl)-7-methyl-6-[2-methyl-6-(2-methylpropyl)phenyl]-9-oxa-2λ^6-thia-3,5,12,19-tetraazatricyclo[12.3.1.1∧{4,8}]nonadeca-1(17),4(19),5,7,14(18),15-hexaene-2,2,13-trione” the ring closure, yield after HPLC ([1]; 22.6 mM, 25.0 °C) was 76%.
Compound `Cc1cccc(C)c1-c1cc2nc(n1)NS(=O)(=O)c1cccc(c1)C(=O)N(Cc1cnc3oc(C(C)C)cc3n1)C(CCC(C)(C)F)CO2` (stereo not drawn) has a ring closure, yield after HPLC ([1]; from Cc1cccc(C)c1-c1cc(OCC(CCC(C)(C)F)NCc2cnc3oc(C(C)C)cc3n2)nc(NS(=O)(=O)c2cccc(C(=O)O)c2)n1, 35.1 mM, 16.0 h) of 65%.
`Cc1cccc(C)c1-c1cc2nc(n1)NS(=O)(=O)c1cccc(c1)C(=O)N(Cc1nc3cc(C4CC4)oc3cc1F)[C@H](CC1(C)CC1)CO2` [Compound I-197, (11R)-12-[(2-cyclopropyl-6-fluoro-furo[3,2-b]pyridin-5-yl)methyl]-6-(2,6-dimethylphenyl)-11-[(1-methylcyclopropyl)methyl]-2,2-dioxo-9-oxa-2λ^6-thia-3,5,12,19-tetrazatricyclo[12.3.1.14,8]nonadeca-1(18),4(19),5,7,14,16-hexaen-13-one] showed a ring closure, yield after HPLC ([1]; from Cc1cccc(C)c1-c1cc(OC[C@@H](CC2(C)CC2)NCc2nc3cc(C4CC4)oc3cc2F)nc(NS(=O)(=O)c2cccc(C(=O)O)c2)n1, 19.2 mM, 16.33 h) of 62%, an Emax ([2]; 18-24 hours) of over 60% and an EC50 [2] of 1000 to 3000 nM.
Work on “(5P,11R)-12-({6-tert-butyl-5-methyl-5H-pyrrolo[2,3-b]pyrazin-3-yl}methyl)-11-(2,2-dimethylpropyl)-7-methyl-6-[2-methyl-6-(2-methylpropyl)phenyl]-9-oxa-2λ^6-thia-3,5,12,19-tetraazatricyclo[12.3.1.1∧{4,8}]nonadeca-1(17),4(19),5,7,14(18),15-hexaene-2,2,13-trione” yielded a ring closure, yield after HPLC ([1]; 14.0 mM) of 61%.
Compound `Cc1cccc(C)c1-c1cc2nc(n1)NS(=O)(=O)c1cccc(c1)C(=O)N(Cc1cnc3cc(C(C)(C)C)n(C)c3n1)[C@H](C1CCCO1)CO2` (single isomer, unassigned; isomer b) has a ring closure, yield after HPLC ([1]; from Cc1cccc(C)c1-c1cc(OC[C@H](NCc2cnc3cc(C(C)(C)C)n(C)c3n2)C2CCCO2)nc(NS(=O)(=O)c2cccc(C(=O)O)c2)n1, 15.5 mM, 25.0 °C, 20.0 h) of 55%.
Work on “(5P,11R)-6-[2-(cyclopentylmethyl)-6-methylphenyl]-11-(2,2-dimethylpropyl)-7-methyl-12-{[5-methyl-6-(propan-2-yl)-5H-pyrrolo[2,3-b]pyrazin-3-yl]methyl}-9-oxa-2λ^6-thia-3,5,12,19-tetraazatricyclo[12.3.1.1∧{4,8}]nonadeca-1(17),4(19),5,7,14(18),15-hexaene-2,2,13-trione” yielded a ring closure, yield after HPLC ([1]; 9.74 mM) of 45%.
For `Cc1cccc(C)c1-c1cc2nc(n1)NS(=O)(=O)c1cccc(c1)C(=O)N(Cc1ccn3nc(C(C)C)cc3n1)[C@H](CC1(C)CC1)CO2`, the ring closure, yield after HPLC ([1]; from Cc1cccc(C)c1-c1cc(OC[C@@H](CC2(C)CC2)NCc2ccn3nc(C(C)C)cc3n2)nc(NS(=O)(=O)c2cccc(C(=O)O)c2)n1, 9.91 mM, 25.0 °C, 16.5 h) was 43%.
`Cc1cccc(C)c1-c1cc2nc(n1)NS(=O)(=O)c1cccc(c1)C(=O)N(Cc1cnc3oc(C(C)(C)COCc4ccccc4)cc3n1)[C@H](CC13CC(C1)C3)CO2` gave a ring closure, yield after HPLC ([1]; from Cc1cccc(C)c1-c1cc(OC[C@@H](CC23CC(C2)C3)NCc2cnc3oc(C(C)(C)COCc4ccccc4)cc3n2)nc(NS(=O)(=O)c2cccc(C(=O)O)c2)n1, 31.3 mM, 16.0 h) of 69%.
For `Cc1cccc(C)c1-c1cc2nc(n1)NS(=O)(=O)c1cccc(c1)C(=O)N(Cc1cnc3cc(C(C)(C)C)n(C)c3n1)[C@H](C1CCCO1)CO2` (single isomer, unassigned; isomer a), the ring closure, yield after HPLC ([1]; from Cc1cccc(C)c1-c1cc(OC[C@H](NCc2cnc3cc(C(C)(C)C)n(C)c3n2)C2CCCO2)nc(NS(=O)(=O)c2cccc(C(=O)O)c2)n1, 13.2 mM, 25.0 °C, 20.0 h) was 53%.
